Experimental data taken from article PMC6944487, “Tandem Molecular Self-Assembly Selectively Inhibits Lung Cancer Cells by Inducing Endoplasmic Reticulum Stress” (Research, 2019).
Where two headings read alike, the source gives them in different places. *1 amine or outer side, *2 acyl side, *3 side chain or, on linkers, in order; H or OH if unused. Where a SMILES comes first, the peptide text is derived from it. [ ]: non-standard residue; d: D form. The star is where a group is joined. X1 = O=C(c1ccc(/N=N/c2ccc(N[*:1])cc2)cc1)[*:2]; pY = N[C@@H](Cc1ccc(OP(=O)(O)O)cc1)C(=O)O; NBD = O=[N+]([O-])c1ccc(*)c2nonc12; βAla = NCCC(=O)O

Experiments:
A549 cells [1] = experiment: JC-1 staining, mitochondrial membrane potential; format: cell-based, human; settings: 200 μM, 4 h time point
Procedure: Mitochondrial membrane potential was assessed by staining with JC-1 dye (5,50,6,60-tetrachloro-1,10,3,30-tetraethylbenzimidazol-carbocyanine iodide) (abcam). 1 × 10^4 A549 cells per well, seeded in 96-well plates, were treated with Comp.1 (200 μM) for different time points and FCCP (100 μM) for 4 h. After treatment, a medium was removed and the cells were then incubated in 100 μL PBS containing JC-1 dye (20 μM) for 15 min at 37°C and subsequently washed with PBS for three times. The red fluorescence (λexc. = 543 nm, emission = 570‐620 nm) was determined by a microplate reader (BioTek).
A549 cells were seeded in CLSM cultural dish at a density of 1 × 10^5 cells. After incubation for 12 h, a medium was removed. The cells were then incubated with Comp. 1 (200 μM) at different time points. The cells also were incubated with FCCP (100 μM) for 4 h as the positive control group. Then, removing medium, JC-1 staining kit (20 μM) was incubated with A549 cells for 15 min. The medium was removed, and the cells were washed by PBS three times. 1 mL of PBS was added for imaging by live cell imaging systems (green channel (depolarization) λexc. = 488 nm, emission = 500 − 540 nm; red channel (hyperpolarization) λexc. = 543 nm, emission = 570‐620 nm, all test conditions are consistent).

HeLa cells = experiment: Cell proliferation (SRB) assay, HeLa; format: cell-based; settings: 48 h incubation, n = 3
Procedure: (§1) PC-3, MCF-7, HeLa, U87, HPAEpiC, and A549 cells were purchased from the Type Culture Collection of the Chinese Academy of Sciences (Shanghai, China); PC-3, MCF-7, HeLa, U87, and A549 cells were cultured in Dulbecco's Modified Eagle's medium (DMEM) supplemented with 10% v/v fetal bovine serum (FBS), 100 U/mL penicillin, and 100 μg/mL streptomycin; HPAEpiC cells were cultured in RPMI 1640 Medium supplemented with 10% v/v fetal bovine serum, 100 U/mL penicillin, and 100 μg/mL streptomycin. All cells were at 37°C in a humidified atmosphere of 5% CO2.
(§2) In this experiment, all cell lines were incubated in a 96-well plate at a density of about 6000. According to previous method, cell was fixed by cold 10% trichloroacetic acid solution at 4°C overnight after incubated with compound for 48 h. Then, discarding the fixative solution and washed by water for three times, put the 96-well plate in a 37°C oven to dry. Next, 0.4% SRB solution was used to stain cell for 20 min at room temperature to form protein-bound dry, then using 1% AcOH solution to clean excessive SRB. Put the 96-well plate in a 37°C oven to dry and add 10 mM Tris base solution of 100 μL every well to solubilize the protein-bound dry for 30 min. Measure the OD at 570 nm in a microplate reader.

[2] = Appearance of solution in PBS; format: physicochemical; settings: 200 μM (0.03 wt%) in PBS pH 7.4
Procedure: (§3) The Comp. […] 1. […] We thereafter added the enzyme ALP (1 U·mL^−1) to the PBS solution of Comp. 1 at 37°C, and the solution remained clear after 12 h (Figure 2(a)). […] 1 had been converted to Comp. 2 within 6 h (Figures 2(a) and ). Accordingly, the nanofibers with a diameter of 6–10 nm formed in the resulting solution of Comp. 2 (Figure 2(c)). With the addition of rat liver microsomes (226 μg·mL^−1) and NADPH (50 equiv.) to trigger the conversion from azobenzene to aniline, a yellowish precipitate was clearly observed within 24 h (Figure 2(b)). […] 2 had been converted into Comp. 3 within 24 h (Figures 2(b) and ). […] 2 and Comp. 3. […] The above observations strongly indicated the tandem molecular self-assembly behavior of Comp. 1 with the catalysis by ALP and reductase.
(§4) […] of Comp. 1 was dissolved in 500 μL of PBS (pH = 7.4) as a stock solution (PBS was bubbled by Argon for 30 min in advance). The concentration of the stock solution was 200 μM. Na2CO3 (1 M) was added to the above solution to adjust the final pH to 7.4. The solution was incubated at 37°C. The alkali phosphatase (1 U/mL) was then added to the solution for 12 hours at 37°C to trigger the first step of self-assembly. After that, rat liver microsomes (226 μg/mL) and NADPH (50 equiv.) were added for 24 hours at 37°C to trigger the second step of self-assembly.

[3] = Critical aggregation concentration (CAC) by dynamic light scattering; format: physicochemical; settings: DLS, light scattering intensity per concentration, PBS pH 7.4
Procedure: The synthesized compounds were characterized by 1H NMR (Bruker ARX-400) using DMSO-d6 as the solvent. HPLC was conducted at the LUMTECH HPLC (Germany) system using a C18 RP column with methanol (0.05% of TFA) and water (0.05% of TFA) as the eluents. LC-MS was conducted at the LCMS-20AD (Shimadzu) system. HR-MS was performed at the Agilent 6520 Q-TOF LC/MS using ESI-L low concentration tuning mix (Lot No. LB60116 from the Agilent Tech.). CMC values and size distribution of micelles were determined by dynamic light scattering (DLS); this experiment was conducted on a laser light scattering spectrometer (BI-200SM, Brookhaven, USA). The morphology conversion of the peptide derivatives was measured by TEM performed on a Tecnai G2 F20 system, operating at 200 kV. Cellular uptake and drug tracking images were taken by a confocal laser scanning microscopy (Leica TSC SP8, Germany).
The CAC value of compounds 1, 2, 4, and 5 in PBS solution (pH = 7.4) was determined by dynamic light scattering (DLS), and the light scattering intensity was recorded for each concentration analyzed.

A549 cells [4] = experiment: Cell proliferation (SRB) assay, A549; format: cell-based, human
Procedure: as §1, §2

U87 cells = experiment: Cell proliferation (SRB) assay, U87; format: cell-based; settings: 48 h incubation, n = 3
Procedure: as §1, §2

A549 xenograft tumors = experiment: In vivo antitumor assay, A549 xenograft; set-up: species or system BALB/c nude mice; settings: 5 mg/kg i.v. once every three days, tumors at day 15
Procedure: (§5) A549 cells were maintained in our lab. The BALB/c nude (6 weeks old, female) mice purchased from Beijing Vital River Laboratory Animal Technology Co., Ltd. were used. 5 × 10^7 A549 cells (100 μL) mixed with growth factor-reduced Matrigel (50 μL, BD Biosciences) were subcutaneously injected into the right flank of each mouse. The drug treatment was started when tumor volume reached 80 mm^3; the tumor volume was calculated by the formula: length∗width^2/2. Mice (n = 5) received compounds 1, 2, 4, and 5 (5.0 mg/kg) in PBS by i.v. injection, whereas the control group (n = 5) received PBS only. The compound was injected every three days. The mice were weighed, and tumors were measured every two days during the treatment period.
The mice were sacrificed to obtain tumor tissues; tumor tissues were fixed by 4% formalin over 48 h, embedded in paraffin, cut into 5-6 μm sections for H&E staining, and evaluated using light microscopy as previously described method.

A549 cells [5] = experiment: Lysosome colocalization (CLSM, Lyso-Tracker); format: cell-based, human; settings: 200 μM; for lysosomal escape: 4 h, Lyso-Tracker; for mean fluorescence intensity in cells (versus cells treated with Comp. 4 and Comp. 5): A549 cells
Procedure: (§6) A549 cells was seeded in CLSM cultural dish at a density of 1 × 10^5 cells. After incubation for 12 h, a medium was removed. The cells were then incubated with Comp. 1, 2, 4, or 5 (200 μM) for 1 or 4 h (lysosome colocation). Cells were incubated with Comp. 1 (200 μM) for 8, 10, and 12 h (mitochondrial colocation). Next, the medium containing different compound was removed and washed by PBS for three times, and lysosome tracker (1×) was incubated with cells for 45 min. The medium was removed and the cells were washed by PBS three times. 1-2 mL of DMEM was added for imaging by live cell imaging systems (λexc. = 488 nm, emission = 510‐560 nm; λexc. = 543 nm, emission = 650‐750 nm). Mito-Tracker (1×) was incubated with cells for 30 min. The medium was then removed and washed by PBS three times. 1-2 mL of DMEM was added for imaging by live cell imaging systems (λexc. = 488 nm, emission = 510‐560 nm; λexc. = 633 nm, emission = 650‐750 nm, all test conditions are consistent).

PC-3 cells = experiment: Cell proliferation (SRB) assay, PC-3; format: cell-based; settings: 48 h incubation, n = 3
Procedure: as §1, §2

A549 cells [6] = experiment: Mitochondrial colocalization / cytoplasmic vacuolization, ER stress (CLSM, Mito-Tracker); format: cell-based, human; settings: 200 μM, 10-12 h
Procedure: as §6

[7] = tested on: T1, alkaline phosphatase (ALP); experiment: Conversion by alkaline phosphatase (LC-MS); format: in vitro ADME; settings: alkaline phosphatase (ALP) in PBS; ALP 1 U/mL, 200 μM in PBS pH 7.4, 37°C, within 6 h, LC-MS trace; read-out: Comp. 1 converted to Comp. 2
T1 construct: purchased Takara D2250
Procedure: as §3, §4

MCF-7 cells = experiment: Cell proliferation (SRB) assay, MCF-7; format: cell-based; settings: 48 h incubation, n = 3
Procedure: as §1, §2

[8] = tested on: normal human alveolar epithelial cells (HPAEpiC); experiment: Cell proliferation (SRB) assay, HPAEpiC; format: cell-based; settings: 48 h incubation, n = 3
Procedure: as §1, §2

[9] = Body weight of treated tumor-bearing mice; format: in vivo, BALB/c nude mice; settings: 5 mg/kg i.v. once every three days
Procedure: as §5

different cell lines = experiment: Cell uptakes; format: cell-based; settings: 200 μM, 6 h, cell lysate OD 488 nm, n = 3
Procedure: Cells were incubated in 12-well plates at a density of 10 × 10^6 cells. The cell cultural medium containing 200 μM of each compound was added to the cells, and the upper medium was removed at 6 h time point. Cells were washed for three times with PBS or DMEM. After being treated with cell lysis solution (1 mL per well contained 200 μL DMSO) for 15 min, the solutions were centrifuged at […] for 10 min. The amount of compound in the upper solution was determined by a microplate reader at OD of 488 nm (Bio-Rad Mark^TM, America).

[10] = tested on: reductase (rat liver microsomes); experiment: in vitro; format: in vitro ADME; settings: pH 7.4
Procedure: as §3, §4

[11] = SRB, 48 h incubation, mean ± SEM n = 3, read-out: IC50 in A549 cells

SMILES: N=C(N)NCCC[C@H](NC(=O)[C@H](CCC(=O)O)NC(=O)c1ccc(/N=N/c2ccc(NC(=O)CNC(=O)[C@H](Cc3ccc(OP(=O)(O)O)cc3)NC(=O)[C@H](Cc3ccccc3)NC(=O)[C@H](Cc3ccccc3)NC(=O)CNC(=O)CCNc3ccc([N+](=O)[O-])c4nonc34)cc2)cc1)C(=O)NCC(=O)N[C@@H](CC(=O)O)C(=O)O [Comp. 1, NBD-GFFpYG-N=N-ERGD] ({NBD-βAla}-GFF[pY]G[X1]ERGD-OH)
- mitochondrial membrane potential (JC-1) (A549 cells [1]): caused mitochondrial depolarization
- IC50 (HeLa cells): ~74.7 µM
- appearance of solution [2]: clear solution
- critical aggregation concentration (CAC) [3]: 263.6 µM
- IC50 (A549 cells [4]; [11]): ~2.49 µM
- IC50 (U87 cells): ~5.07 µM
- H&E histology of tumor tissue (A549 xenograft tumors): severely apoptotic
- lysosomal escape (A549 cells [5]): efficiently escaped from the late endosomes/lysosomes
- mean fluorescence intensity in cells (versus cells treated with Comp. 4 and Comp. 5) (A549 cells [5]): significantly higher
- IC50 (PC-3 cells): ~20.5 µM
- ER stress / cytoplasmic vacuolization (A549 cells [6]): massive cytoplasmic vacuolization
- metabolised at 6 h, 200 μM [7]: > 95%
- IC50 (MCF-7 cells): ~15.9 µM
- IC50 [8]: ~40.1 µM
- body weight change [9]: did not exhibit a loss of body weight
- cellular uptake in different cells (different cell lines): no significant differences

SMILES: N=C(N)NCCC[C@H](NC(=O)[C@H](CCC(=O)O)NC(=O)c1ccc(/N=N/c2ccc(NC(=O)CNC(=O)[C@H](Cc3ccc(O)cc3)NC(=O)[C@H](Cc3ccccc3)NC(=O)[C@H](Cc3ccccc3)NC(=O)CNC(=O)CCNc3ccc([N+](=O)[O-])c4nonc34)cc2)cc1)C(=O)NCC(=O)N[C@@H](CC(=O)O)C(=O)O [Comp. 2, NBD-GFFYG-N=N-ERGD] ({NBD-βAla}-GFFYG[X1]ERGD-OH)
- IC50 (A549 cells [4]; [11]): 82.7 µM
- H&E histology of tumor tissue (A549 xenograft tumors): underwent apoptosis
- lysosomal escape (A549 cells [5]): small fraction of lysosomal escape
- mean fluorescence intensity in cells (versus cells treated with Comp. 4 and Comp. 5) (A549 cells [5]): significantly higher
- ER stress / cytoplasmic vacuolization (A549 cells [6]): only caused slight ER stress
- metabolised at 24 h, 200 μM [10]: > 70%

SMILES: N=C(N)NCCC[C@H](NC(=O)[C@H](CCC(=O)O)NC(=O)CNC(=O)[C@H](Cc1ccc(OP(=O)(O)O)cc1)NC(=O)[C@H](Cc1ccccc1)NC(=O)[C@H](Cc1ccccc1)NC(=O)CNC(=O)CCNc1ccc([N+](=O)[O-])c2nonc12)C(=O)NCC(=O)N[C@@H](CC(=O)O)C(=O)O [Comp. 4, NBD-GFFpYGERGD] ({NBD-βAla}-GFF[pY]GERGD-OH)
- IC50 (A549 cells [4]; [11]): > 500 µM

SMILES: N=C(N)NCCC[C@H](NC(=O)[C@H](CCC(=O)O)NC(=O)CNC(=O)[C@H](Cc1ccc(O)cc1)NC(=O)[C@H](Cc1ccccc1)NC(=O)[C@H](Cc1ccccc1)NC(=O)CNC(=O)CCNc1ccc([N+](=O)[O-])c2nonc12)C(=O)NCC(=O)N[C@@H](CC(=O)O)C(=O)O [Comp. 5, NBD-GFFYGERGD] ({NBD-βAla}-GFFYGERGD-OH)
- IC50 (A549 cells [4]; 48 h): > 500 µM
